A value given as a limit tells only on which side of the number the result lay.

The assay deals with M. tuberculosis W4-E1-GFP (Mutant). It is filed as cell-based, Mycobacterium tuberculosis. The settings on record: read-out: EC50_Mutant.
Consider `O=C(CCC(F)(F)F)N1CCC(c2cccc(F)n2)CC1` [Example 9, 4,4,4-trifluoro-1-[4-(6-fluoro-2-pyridyl)-1-piperidyl]butan-1-one], for which the EC50 lay within 0.25 to 0.5 µM.

As for `O=C(CCC(F)(F)F)N1CCC(c2ccc(F)nc2)CC1` [Example 4, 4,4,4-trifluoro-1-[4-(6-fluoro-3-pyridyl)-1-piperidyl]butan-1-one], the EC50 is 1 to 10 µM.

In the case of `O=C(CCC(F)(F)F)N1CCC(c2cncc(F)c2)CC1` [Example 3, 4,4,4-trifluoro-1-[4-(5-fluoro-3-pyridyl)-1-piperidyl]butan-1-one], the EC50 is 1 to 10 µM.

Turning to `O=C(CCC(F)(F)F)N1CCC(c2cncc(Cl)c2)C1` (stereo not drawn) [Example 38, 1-(3-(5-chloropyridin-3-yl)pyrrolidin-1-yl)-4,4,4-trifluorobutan-1-one], the EC50 is less than 0.05 µM.

With `COc1ccc(C2CCN(C(=O)CCC(F)(F)F)CC2)cn1` [Example 10, 4,4,4-trifluoro-1-[4-(6-methoxy-3-pyridyl)-1-piperidyl]butan-1-one], the EC50 fell in the range of 0.05 to 0.25 µM.

On to `O=C(CCC(F)(F)F)N1CCC(F)(c2cncc(Cl)n2)CC1` [Example 36, 1-(4-(6-chloropyrazin-2-yl)-4-fluoropiperidin-1-yl)-4,4,4-trifluorobutan-1-one], for which the EC50 was 0.25 to 0.5 µM.

As for `O=C(CCC(F)(F)F)N1CCC(F)(c2ccnc(Cl)c2)CC1` [Example 41], the EC50 is less than 0.05 µM.

In the case of `O=C(CCC(F)(F)F)N1CCC(F)(c2ccnc(C(F)(F)F)c2)CC1` [Example 35, 4,4,4-trifluoro-1-(4-fluoro-4-(2-(trifluoromethyl)pyridin-4-yl)piperidin-1-yl)butan-1-one], the EC50 was less than 0.05 µM.

On to `O=C(CCC(F)(F)F)N1CCC(c2ccnc(F)c2)CC1` [Example 20, 4,4,4-trifluoro-1-(4-(2-fluoropyridin-4-yl)piperidin-1-yl)butan-1-one], for which the EC50 lay in the range of 0.05 to 0.25 µM.

On to `O=C(CCC(F)(F)F)N1CCC(c2cnccn2)CC1` [Example 1, 4,4,4-trifluoro-1-(4-pyrazin-2-yl-1-piperidyl)butan-1-one], for which the EC50 lay in the range of 1 to 10 µM.

As for `O=C(CCC(F)(F)F)N1CCC(c2cccnc2C(F)(F)F)CC1` [Example 11, 4,4,4-trifluoro-1-[4-[2-(trifluoromethyl)-3-pyridyl]-1-piperidyl]butan-1-one], the EC50 lay in the range of 1 to 10 µM.

For `O=C(CCC(F)(F)F)N1CCC(c2ccnc(Cl)c2)CC1` [Example 25, 1-(4-(2-chloropyridin-4-yl)piperidin-1-yl)-4,4,4-trifluorobutan-1-one], the EC50 fell in the range of 0.05 to 0.25 µM.

Regarding `O=C(CCC(F)(F)F)N1CCC(c2cccc(Cl)n2)CC1` [Example 27, 1-(4-(6-chloropyridin-2-yl)piperidin-1-yl)-4,4,4-trifluorobutan-1-one], the EC50 was in the range of 0.05 to 0.25 µM.

For the compound `O=C(CCC(F)(F)F)N1CCC(c2cccc(C(F)(F)F)n2)CC1` [Example 8, 4,4,4-trifluoro-1-[4-[6-(trifluoromethyl)-2-pyridyl]-1-piperidyl]butan-1-one], the EC50 lay in the range of 1 to 10 µM.

On to `O=C(CCC(F)(F)F)N1CCC(F)(c2cncc(C(F)(F)F)c2)CC1` [Example 34, 4,4,4-trifluoro-1-(4-fluoro-4-(5-(trifluoromethyl)pyridin-3-yl)piperidin-1-yl)butan-1-one], for which the EC50 was less than 0.05 µM.

Turning to `O=C(CCC(F)(F)F)N1CCC(c2ccnc(C(F)(F)F)c2)CC1` [Example 18, 4,4,4-trifluoro-1-(4-(2-(trifluoromethyl)pyridin-4-yl)piperidin-1-yl)butan-1-one], the EC50 was less than 0.05 µM.

Turning to `O=C(CCC(F)(F)F)N1CCC(c2cncnc2)CC1` [Example 16], the EC50 is 1 to 10 µM.

With `O=C(CCC(F)(F)F)N1CCC(c2cncc(Cl)c2)CC1` [Example 30, 1-(4-(5-chloropyridin-3-yl)piperidin-1-yl)-4,4,4-trifluorobutan-1-one], the EC50 was in the range of 0.05 to 0.25 µM.

`O=C(CCC(F)(F)F)N1CCC(c2cnc(C(F)(F)F)cn2)CC1` [Example 21, 4,4,4-trifluoro-1-(4-(5-(trifluoromethyl)pyrazin-2-yl)piperidin-1-yl)butan-1-one]: the EC50 was in the range of 1 to 10 µM.

For `O=C(CCCC(F)(F)F)N1CCC(c2cncc(Cl)c2)CC1` [Example 31, 1-(4-(5-chloropyridin-3-yl)piperidin-1-yl)-5,5,5-trifluoropentan-1-one], the EC50 lay in the range of 0.25 to 0.5 µM.

With `O=C(CCC(F)(F)F)N1CCC(c2ccc(F)nc2F)CC1` [Example 14, 1-[4-(2,6-difluoro-3-pyridyl)-1-piperidyl]-4,4,4-trifluoro-butan-1-one], the EC50 was in the range of 0.05 to 0.25 µM.

Consider `O=C(CCC(F)(F)F)N1CCC(F)(c2cc(C(F)(F)F)ccn2)CC1` [Example 39, 4,4,4-trifluoro-1-[4-fluoro-4-[4-(trifluoromethyl)-2-pyridyl]-1-piperidyl]butan-1-one], for which the EC50 lay in the range of 0.05 to 0.25 µM.

Regarding `O=C(CCC(F)(F)F)N1CCC(F)(c2ccc(F)nc2)CC1` [Example 40], the EC50 lay within 0.05 to 0.25 µM.

For `COc1cncc(C2CCN(C(=O)CCC(F)(F)F)CC2)c1` [Example 12, 4,4,4-trifluoro-1-[4-(5-methoxy-3-pyridyl)-1-piperidyl]butan-1-one], the EC50 was in the range of 0.5 to 1 µM.

Regarding `O=C(CCC(F)(F)F)N1CCC(c2ccc(F)cn2)CC1` [Example 17, 4,4,4-trifluoro-1-[4-(5-fluoro-2-pyridyl)-1-piperidyl]butan-1-one], the EC50 was 1 to 10 µM.

`O=C(CCC(F)(F)F)N1CCC(F)(c2cncc(Cl)c2)CC1` [Example 29, 1-(4-(5-chloropyridin-3-yl)-4-fluoropiperidin-1-yl)-4,4,4-trifluorobutan-1-one]: the EC50 is less than 0.05 µM.

In the case of `O=C(CCC(F)(F)F)N1CCC(F)(c2cccnc2)CC1` [Example 2, 4,4,4-trifluoro-1-[4-fluoro-4-(3-pyridyl)-1-piperidyl]butan-1-one], the EC50 was 0.5 to 1 µM.

For the compound `Cc1cc(C2CCN(C(=O)CCC(F)(F)F)CC2)ccn1` [Example 22, 4,4,4-trifluoro-1-(4-(2-methylpyridin-4-yl)piperidin-1-yl)butan-1-one], the EC50 was in the range of 0.05 to 0.25 µM.

Turning to `O=C(CCC(F)(F)F)N1CCC(F)(c2ccnc(F)c2)CC1` [Example 37, 4,4,4-trifluoro-1-(4-fluoro-4-(2-fluoropyridin-4-yl)piperidin-1-yl)butan-1-one], the EC50 was less than 0.05 µM.

On to `O=C(CCC(F)(F)F)N1CCC(c2cc(C(F)(F)F)ccn2)CC1` [Example 6, 4,4,4-trifluoro-1-[4-[4-(trifluoromethyl)-2-pyridyl]-1-piperidyl]butan-1-one], for which the EC50 lay within 0.05 to 0.25 µM.

For `O=C(CCC(F)(F)F)N1CCC(c2ccc(C(F)(F)F)nc2)CC1` [Example 5, 4,4,4-trifluoro-1-[4-[6-(trifluoromethyl)-3-pyridyl]-1-piperidyl]butan-1-one], the EC50 fell in the range of 1 to 10 µM.

Turning to `O=C(CCC(F)(F)F)N1CCC(c2cncc(C(F)(F)F)c2)CC1` [Example 7, 4,4,4-trifluoro-1-[4-[5-(trifluoromethyl)-3-pyridyl]-1-piperidyl]butan-1-one], the EC50 was in the range of 0.05 to 0.25 µM.

In the case of `O=C(CCC(F)(F)F)N1CCC(c2cncc(Cl)n2)CC1` [Example 32, 1-(4-(6-chloropyrazin-2-yl)piperidin-1-yl)-4,4,4-trifluorobutan-1-one], the EC50 was in the range of 0.05 to 0.25 µM.

Regarding `O=C(CCC(F)(F)F)N1CCC(c2nccc(C(F)(F)F)n2)CC1` [Example 15], the EC50 fell in the range of 1 to 10 µM.

`O=C(CCC(F)(F)F)N1CCC(c2ccncc2F)CC1` [Example 26, 4,4,4-trifluoro-1-(4-(3-fluoropyridin-4-yl)piperidin-1-yl)butan-1-one]: the EC50 fell in the range of 0.5 to 1 µM.

Turning to `O=C(CCC(F)(F)F)N1CCC(c2ncccn2)CC1` [Example 28, 4,4,4-trifluoro-1-[4-(pyrimidin-2-yl)piperidin-1-yl]butan-1-one], the EC50 lay within 1 to 10 µM.

Turning to `O=C(CCC(F)(F)F)N1CCC(F)(c2ccccn2)CC1` [Example 33, 4,4,4-trifluoro-1-(4-fluoro-4-(pyridin-2-yl)piperidin-1-yl)butan-1-one], the EC50 is 0.05 to 0.25 µM.

As to `O=C(CCC(F)(F)F)N1CCC(c2cnc(F)c(F)c2)CC1` [Example 23, 1-(4-(5,6-difluoropyridin-3-yl)piperidin-1-yl)-4,4,4-trifluorobutan-1-one], the EC50 lay within 0.05 to 0.25 µM.

`O=C(CCC(F)(F)F)N1CCC(c2cncc(C(F)(F)F)n2)CC1` [Example 24, 4,4,4-trifluoro-1-(4-(6-(trifluoromethyl)pyrazin-2-yl)piperidin-1-yl)butan-1-one]: the EC50 was 0.5 to 1 µM.

(Values after patent publication US11969423B2, “Compounds” (GLAXOSMITHKLINE INTELLECTUAL PROPERTY DEVELOPMENT LIMITED, priority 2017, dated 2024).)
